Where two headings read alike, the source gives them in different places.

One data set has as its target c-Met (h) (Homo sapiens (Human), UniProt P08581). Nature of the data set: KINOMEscan competition binding assay, c-Met (h).
A further data set addresses KDR (h) (Homo sapiens (Human), UniProt P35968). Nature of the data set: KINOMEscan competition binding assay, KDR (h).
Data set [1] can be described thus: Compound stability in rat liver microsomes. It counts as in vitro ADME. The settings on record: for stability / metabolism in rat liver microsomes (in words): incubated in rat liver microsomes; for half-life at 5 μM / CLint scaled at 5 μM: pH 7.4, rat liver microsomes; for half-life at 5 μM: 0.5 mg protein/mL, compound 5 μM, NADPH 1.0 mM, 37° C.; for CLint scaled at 5 μM: in vivo CLint extrapolated. Here is the method:
Human or rat liver microsomes incubations were conducted in duplicate in polypropylene tubes. The typical incubation mixtures consisted of human or rat liver microsomes (0.5 mg protein/mL), compounds of interest (5 μM) and NADPH (1.0 mM) in a total volume of 200 μL, potassium phosphate buffer (PBS, 100 mM, pH 7.4). Compounds were dissolved in DMSO and diluted with PBS such that the final concentration of DMSO was 0.05%. The enzymatic reactions were commenced with the addition of protein after a 3-min preincubation and incubated in a water bath open to the air at 37° C. Reactions were terminated at various time points (0, 5, 10, 15, 30, 60 min) by adding equal volume of ice-cold acetonitrile. The samples were stored at −80° C. until LC/MS/MS assays.
The concentrations of compounds in the incubation mixtures of human or rat liver microsomes were determined by a LC/MS/MS method. The ranges of the linearity in the concentration range were determined for each tested compounds.
A parallel incubation was performed using denatured microsomes as the negative control, and reactions were terminated at various time points (0, 15, 60 min) after incubation at 37° C.
Dextromethorphan (70 μM) was selected as the positive control, and reactions were terminated at various time points (0, 5, 10, 15, 30, 60 min) after incubation at 37° C. Both positive and negative control samples were included in each assay to ensure the integrity of the microsomal incubation system.
The concentrations of compounds in human or rat liver microsome incubations were plotted as a percentage of the relevant zero time point control for each reaction. The in vivo CLint were extrapolated (ref: Naritomi Y, Terashita S, Kimura S, Suzuki A, Kagayama A, Sugiyama Y. Prediction of human hepatic clearance from in vivo animal experiments and in vitro metabolic studies with liver microsomes from animals and humans. Drug Metabolism and Disposition 2001, 29: 1316-1324.)

A short description of data set [2]: Pharmacokinetics after intravenous and oral administration in rats. It counts as in vivo, rat. The settings on record: for Cl/F / AUC(0-t) / half-life / Vd: iv dosing; for F: oral bioavailability; for AUC(0-t) / half-life / Vd: rat, plasma; for Vd: read-out: Vss. Here is the method: The compounds disclosed herein are assessed in pharmacokinetic studies in mice, rats, dogs or monkeys. The compounds are administered as a water solution, 2% HPMC+1% TWEEN®80 in water solution, 5% DMSO+5% solutol in saline, 4% MC suspension or capsule. For the intravenous administration, the animals are generally given at 1 or 2 mg/kg dose. For the oral (p.o.) dosing, mice and rats are generally given 5 or 10 mg/kg dose, and dogs and monkeys are generally given 10 mg/kg dose. The blood samples (0.3 mL) are drawn at 0.25, 0.5, 1.0, 2.0, 3.0, 4.0, 6.0, 8.0, 12 and 24 h time points or 0.083, 0.25, 0.5, 1.0, 2.0, 4.0, 6.0, 8.0 and 24 h time points and centrifuged at 3,000 or 4000 rpm for 2 to 10 min. The plasma solutions are collected, stored at −20° C. or -70° C. until analyzed by LC/MS/MS as described above.

A further data set has as its system U87MG glioblastoma cells. Nature of the data set: U87MG tumor xenograft model, tumor growth inhibition. It counts as in vivo. The settings on record: nude mice, oral gavage once a day, 12 days. The protocol:
The efficacy of compounds disclosed herein was evaluated in a standard murine model of tumorigenesis. Human tumor cells (U87MG glioblastoma cells from ATCC) were expended in culture, harvested, and injected subcutaneously onto the rear flank of 6-7 week old female athymic nude mice (BALB/cA nu/nu, Hunan SLAC Laboratory Animal, Co.) (n=6-10 for vehicle group and for each dosing group). When tumors reached a volume of 100-250 mm^3, animals were randomly divided into vehicle control (for example, 5% DMSO+70% Captisol® (30%), 7% HCl (pH1), 18% Captisol® (30%); or 7% DMSO, 7% HCl (pH1), 70% Captisol® (30%), 16% Captisol® (30%), or the like) and compound groups. Subsequent administration of compound by oral gavage begins anywhere from day 0 to day 15 post tumor cell challenge and generally continues with once a day for the duration of the experiment.
Progression of tumor growth is assessed by tumor volumes and recorded as a function of time. The long (L) and short (W) axes of the subcutaneous tumors were measured with calipers twice weekly, and the tumor volume (TV) calculated as (L×W^2)/2). TGI was calculated from the difference between the median tumor volumes of vehicle-treated and drug-treated mice, expressed as a percentage of the median tumor volume of the vehicle-treated control group, by the following relation:
[formula] Initial statistical analysis is done by repeated measures analysis of variance (RMANOVA), followed by Scheffe psot hoc testing for multiple comparisons. Vehicle alone (5% DMSO+70% Captisol® (30%), 7% HCl (pH1), 18% Captisol® (30%); or 7% DMSO, 7% HCl (pH1), 70% Captisol® (30%), 16% Captisol® (30%), or the like) is the negative control.

Chain of KDR (h) (P35968 20-1356): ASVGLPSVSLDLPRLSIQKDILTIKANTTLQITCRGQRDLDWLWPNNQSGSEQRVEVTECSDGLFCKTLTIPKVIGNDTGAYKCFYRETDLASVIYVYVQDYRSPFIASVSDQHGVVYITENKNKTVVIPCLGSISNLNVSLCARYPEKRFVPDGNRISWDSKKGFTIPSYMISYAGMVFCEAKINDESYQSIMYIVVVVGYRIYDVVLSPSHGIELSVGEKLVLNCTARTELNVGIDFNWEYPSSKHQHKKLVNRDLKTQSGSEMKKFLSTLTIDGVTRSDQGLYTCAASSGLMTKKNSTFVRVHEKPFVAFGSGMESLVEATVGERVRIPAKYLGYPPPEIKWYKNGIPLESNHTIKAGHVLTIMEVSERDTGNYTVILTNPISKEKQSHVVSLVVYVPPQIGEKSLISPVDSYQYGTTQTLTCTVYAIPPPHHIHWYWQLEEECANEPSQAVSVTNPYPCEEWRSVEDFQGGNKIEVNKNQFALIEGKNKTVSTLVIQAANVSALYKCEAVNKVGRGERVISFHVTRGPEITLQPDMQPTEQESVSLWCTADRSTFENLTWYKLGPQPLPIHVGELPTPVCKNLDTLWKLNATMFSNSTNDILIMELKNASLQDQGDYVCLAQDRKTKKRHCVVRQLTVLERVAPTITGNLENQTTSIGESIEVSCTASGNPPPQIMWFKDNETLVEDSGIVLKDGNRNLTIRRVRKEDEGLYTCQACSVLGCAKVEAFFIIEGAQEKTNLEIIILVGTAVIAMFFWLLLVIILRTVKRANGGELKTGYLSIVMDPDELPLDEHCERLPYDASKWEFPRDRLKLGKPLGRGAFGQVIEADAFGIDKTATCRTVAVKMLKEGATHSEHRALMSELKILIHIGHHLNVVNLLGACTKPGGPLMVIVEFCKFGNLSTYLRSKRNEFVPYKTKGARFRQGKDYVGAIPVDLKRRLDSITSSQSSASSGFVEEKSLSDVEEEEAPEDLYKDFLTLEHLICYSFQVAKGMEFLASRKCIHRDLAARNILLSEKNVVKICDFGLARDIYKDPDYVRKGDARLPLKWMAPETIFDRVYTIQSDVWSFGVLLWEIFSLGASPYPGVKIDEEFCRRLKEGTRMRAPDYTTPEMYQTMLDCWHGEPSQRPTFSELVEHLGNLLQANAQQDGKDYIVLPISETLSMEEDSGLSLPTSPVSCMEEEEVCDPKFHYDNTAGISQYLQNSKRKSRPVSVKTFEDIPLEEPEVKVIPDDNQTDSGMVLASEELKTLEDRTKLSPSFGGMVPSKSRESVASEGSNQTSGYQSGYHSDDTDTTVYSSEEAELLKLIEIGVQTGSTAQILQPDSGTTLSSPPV
Chain of c-Met (h) (P08581 25-1390): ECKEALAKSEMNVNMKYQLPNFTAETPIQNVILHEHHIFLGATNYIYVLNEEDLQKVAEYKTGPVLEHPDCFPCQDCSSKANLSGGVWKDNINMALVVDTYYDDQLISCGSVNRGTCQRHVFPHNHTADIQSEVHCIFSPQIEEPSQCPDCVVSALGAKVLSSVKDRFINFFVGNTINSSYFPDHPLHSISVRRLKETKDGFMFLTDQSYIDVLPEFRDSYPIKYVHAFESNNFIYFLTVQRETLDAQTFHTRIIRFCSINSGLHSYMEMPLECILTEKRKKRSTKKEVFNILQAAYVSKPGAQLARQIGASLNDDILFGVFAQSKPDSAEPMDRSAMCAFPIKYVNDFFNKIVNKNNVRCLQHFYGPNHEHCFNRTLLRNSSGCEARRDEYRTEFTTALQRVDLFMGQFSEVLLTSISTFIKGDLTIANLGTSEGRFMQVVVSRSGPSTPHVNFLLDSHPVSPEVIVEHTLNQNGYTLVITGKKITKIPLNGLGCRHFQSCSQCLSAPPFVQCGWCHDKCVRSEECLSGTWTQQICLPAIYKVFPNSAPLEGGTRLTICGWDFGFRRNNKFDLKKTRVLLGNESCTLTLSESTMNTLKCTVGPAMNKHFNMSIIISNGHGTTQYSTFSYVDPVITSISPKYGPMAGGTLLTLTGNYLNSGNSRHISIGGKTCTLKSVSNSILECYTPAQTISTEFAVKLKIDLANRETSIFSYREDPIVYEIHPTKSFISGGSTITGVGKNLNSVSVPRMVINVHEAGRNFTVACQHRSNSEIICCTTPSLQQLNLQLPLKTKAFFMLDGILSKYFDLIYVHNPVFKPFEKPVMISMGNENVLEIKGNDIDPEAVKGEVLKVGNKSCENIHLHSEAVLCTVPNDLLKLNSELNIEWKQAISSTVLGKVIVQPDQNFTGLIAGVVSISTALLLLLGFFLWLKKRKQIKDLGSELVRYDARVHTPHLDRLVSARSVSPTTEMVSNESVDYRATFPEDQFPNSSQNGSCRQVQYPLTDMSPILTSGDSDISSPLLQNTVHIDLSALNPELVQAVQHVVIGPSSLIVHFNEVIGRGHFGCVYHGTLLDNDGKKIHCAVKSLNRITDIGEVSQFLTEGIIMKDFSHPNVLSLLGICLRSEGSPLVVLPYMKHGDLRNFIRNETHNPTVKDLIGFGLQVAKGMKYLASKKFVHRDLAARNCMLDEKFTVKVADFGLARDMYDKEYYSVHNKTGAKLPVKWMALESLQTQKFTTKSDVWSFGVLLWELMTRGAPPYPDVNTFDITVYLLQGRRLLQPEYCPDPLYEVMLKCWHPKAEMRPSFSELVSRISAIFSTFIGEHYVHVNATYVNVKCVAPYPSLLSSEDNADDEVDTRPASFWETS

For orientation: Kd means the concentration at which binding is half-saturated. With `Cc1c(C(=O)Nc2ccc(Oc3ccnc(C(N)=O)c3)c(F)c2)c(=O)n(-c2ccccc2)n1C` [Example 10, 4-(4-(1,5-dimethyl-3-oxo-2-phenyl-2,3-dihydro-1H-pyrazole-4-carboxamido)-2-fluorophenoxy)picolinamide], the equilibrium dissociation constant (Kd) stood at 200 nM at c-Met (h) and 450 nM on KDR (h).

As a reminder, the half-life is the time in which the quantity being followed falls by half. Low values mean fast loss, high ones slow loss. In general, CLint scaled refers to a measure of how fast metabolising enzymes remove a compound, apart from limits set by blood flow. Broadly, the AUC(0-t) is exposure summed from dosing to a finite time, without extrapolation to infinity. A low value points to low exposure. On to `Cc1c(C(=O)Nc2ccc(Oc3ccnc(NC(=O)C4CC4)c3)cn2)c(=O)n(-c2ccccc2)n1C` [Example 8, N-(5-((2-(cyclopropanecarboxamido)pyridin-4-yl)oxy)pyridin-2-yl)-1,5-dimethyl-3-oxo-2-phenyl-2,3-dihydro-1H-pyrazole-4-carboxamide], for which, in data set [1], the “stability / metabolism in rat liver microsomes (in words)” value (“stability / metabolism” below) is “little metabolized”, the half-life at 5 μM was 11.7 h and the CLint scaled at 5 μM was 3.53 mL/min/kg. In data set [2] (dose 2 mg/kg), the Cl/F turned out to be 0.83 mL/min/kg, the AUC(0-t) is 38300 ng·h/mL, the half-life is 4.06 h and the Vd stood at 0.27 L/kg. The F in data set [2] (iv dose 2 mg/kg) is 85.88%. Moreover, the “TGI% (on last day of dosing)” value in the data set with U87MG glioblastoma cells (6 mg/kg) stood at 32%. For the same compound, the “TGI% (on last day of dosing)” value with U87MG glioblastoma cells (30 mg/kg) came out at 78%. For the same compound, binding on c-Met (h) was put at a Kd of 2.4 nM. In addition, on KDR (h), the dissociation constant Kd was determined as 3.2 nM.

On to `Cc1c(C(=O)Nc2ccc(Oc3ccnc(NC(=O)C4CC4)c3)cc2)c(=O)n(-c2ccccc2)n1C` [Example 16, N-(4-((2-(cyclopropanecarboxamido)pyridin-4-yl)oxy)phenyl)-1,5-dimethyl-3-oxo-2-phenyl-2,3-dihydro-1H-pyrazole-4-carboxamide], for which, in data set [1], the “stability / metabolism” value is listed as “little metabolized”, the half-life at 5 μM is 7.06 h and the CLint scaled at 5 μM was 5.86 mL/min/kg. For the same compound, in data set [2] (dose 1 mg/kg), the Cl/F stood at 0.67 mL/min/kg, the AUC(0-t) came to 23400 ng·h/mL, the half-life is 5.95 h and the Vd was 0.31 L/kg. The compound also returned a F in data set [2] (iv dose 1 mg/kg) of 94.49%. The compound also had a Kd on c-Met (h) of 0.21 nM. At KDR (h), this compound registered a dissociation constant (Kd) of 2.9 nM.

`Cc1c(C(=O)Nc2ccc(Oc3ccnc(NC(=O)C4CC4)c3)c(F)c2)c(=O)n(-c2ccccc2)n1C` [Example 11, N-(4-((2-(cyclopropanecarboxamido)pyridin-4-yl)oxy)-3-fluorophenyl)-1,5-dimethyl-3-oxo-2-phenyl-2,3-dihydro-1H-pyrazole-4-carboxamide]: in data set [1], the “stability / metabolism” value is “little metabolized”, the half-life at 5 μM was 3.93 h and the CLint scaled at 5 μM was 10.5 mL/min/kg. Besides, in data set [2] (dose 1 mg/kg), the Cl/F came out at 0.83 mL/min/kg, the AUC(0-t) came to 14000 ng·h/mL, the half-life is 4.61 h and the Vd was 0.34 L/kg. The same compound gave a F in data set [2] (iv dose 1 mg/kg) of 133.5%. The “TGI% (on last day of dosing)” value with U87MG glioblastoma cells (6 mg/kg) amounted to 56%. Also, the “TGI% (on last day of dosing)” value with U87MG glioblastoma cells (30 mg/kg) is 97%. This compound had a dissociation constant (Kd) on c-Met (h) of 0.5 nM. This compound also gave a Kd on KDR (h) of 6.3 nM.

Source of the values: US8975282B2, “Substituted pyrazolone compounds and methods of use” (Calitor Sciences, LLC, priority 2012, dated 2015).
